# Data taken from US10821142B2, “Cancer treatment and diagnosis” (priority 2015, dated 2020).
# Experiments:
# type I IFN production = assay: IFNB induction (qPCR) in normal and colon cancer cells treated with AOM or DMH; format: cell-based, human; conditions: 15 mM for 20 hours
# Description: FIG. 22. Normal and colon cancer cells were treated with AOM or DMH at 15 mM for 20 hours. IFNB induction was analyzed by qPCR. STING, IRF3 and NF-kB translocation was examined: +, translocation; −, no translocation.
# The question arises as to why the STING-signaling pathway may be inhibited in colon adenocarcinoma. Recently, it was shown that STING-deficient cells and mice are sensitive to AOM-induced DNA damage. In this situation, the STING pathway may play a role in the DNA-damage response pathway, to induce the production of cytokines which facilitate tissue repair or damaged cell removal (Chatzinikolaou et al., 2014; Kidane et al., 2014; Lord and Ashworth, 2012). As such, innate immune induction of CA cells in response to DNA damaging agents was examined. […] Thus, the inhibition of the STING pathway may enable DNA damaged cells, harboring mutations, to escape part of the DNA damage response and the immune surveillance machinery to progress into a tumorigenic state.
# IRF3/NF-κB translocation = assay: Immunofluorescence of IRF3/NF-κB translocation in FHC treated with DMH/AOM; format: cell-based, human; conditions: 3 mM for 48 hours
# Description: FIGS. 8A-8C show fluorescence microscopy analysis (related to FIG. 1) of DAPI staining in WT and SKO MEFs treated with 3 mM of AOM of 3 mM of DMH (FIG. 8A) and anti-dsDNA staining and the ration of cytoplasm to nucleus (FIG. 8B) in Human normal colon epithelial cells (FHC) treated with 3 mM of AOM or 3 mM of DMH for 48 hours. (FIG. 8C) Immunofluorescence microscopy analysis of FHC treated with AOM and DMH sane as FIG. 8A for 48 hours using p65 or IRF3 antibody. Images shown at original magnification, 160×.
# To start determining the mechanisms underlining the cause of DMH/AOM-induced STING activity, MEF or FHC cells were treated with these drugs and observed by two different approaches, DAPI staining and immunofluorescence (IF) using anti-dsDNA antibody, the leakage of DNA into the cytosol (FIGS. 8A and 8B). Cytosolic DNA activates STING and stimulates STING/TBK1 trafficking via autophagy to endosomal regions harboring the transcription factors IRF3 and NF-κB, which triggers cytokine production. […]
# Cells were cultured and treated in their appropriate media on Lab-Tek II chamber slides. […] Immunostaining was performed with rabbit-anti-STING polyclonal followed by fluorescence conjugated secondary antibodies (FITC-goat-anti-rabbit) (Invitrogen). […]
# [1] = system: STING-dependent genes in murine embryonic fibroblasts; assay: Gene array and qPCR of WT and SKO MEFs treated with AOM or DMH; format: cell-based, mouse; conditions: WT and SKO MEFs; DMH 1 mM for 8 hours
# Description: FIGS. 1A-1E show activation of STING-dependent genes by azoxymethane (AOM) (FIG. 1A) Gene array analysis of Wild type (WT) and STING deficient (SKO) mouse embryonic fibroblasts (MEFs) treated with AOM at 0.14 mM for 8 hours (Left) and 1,2-dimethylhydrazine (DMH) at 1 mM for 8 hours (Right). Highest variable genes are shown. Rows represent individual genes; columns represent individual samples. Grayscale indicates transcript levels below, equal to, or above the mean. Scale represents the intensity of gene expression (log 2 scale ranges between −2.4 and 2.4). (FIG. 1B) qPCR analysis of Cxcl10 and Ifit3 in MEFs treated with AOM and DMH same as FIG. 1A. (FIG. 1C) qPCR analysis of Cxcl10 in Human epithelial cell (FHC) treated with AOM and DMH at 1 mM for 24 hours. (FIG. 1D) FHC cells were transfected with STING or control siRNA for 72 hours followed by AOM and DMH treatment same as FIG. 1C, and were then subjected to Cxcl0 mRNA expression (Left). STING expression level after siRNA treatment was determined by qPCR (Right). […] (FIG. 1E) STING Immunohistochemistry staining of the colon tissue from WT and SKO mice (Left) and Human. All images were shown at original magnification, 200×.
# Towards these objectives, the AOM/DSS model, as described above, was utilized and analyzed the effects of AOM and precursor DMH upon STING signaling. Principally, wild type (WT) or STING-deficient (SKO) murine embryonic fibroblasts (MEF) were treated in vitro with DMH or metabolite AOM for 8 hours and microarray analysis performed to analyze the consequences to gene expression. […] The observed STING-dependent gene expression was confirmed following RT-PCR analysis of select mRNA such as Cxcl10 and IFIT3 (FIG. 1B). […] Thus, the DNA damaging agent DMH/AOM can invoke STING-dependent signaling.
# Total RNA was isolated from cells or tissues with RNeasy Mini kit (74104, Qiagen, Valencia, Calif.). RNA quality was analyzed by Bionalyzer RNA 6000 Nano (Agilent Technologies, Santa Clara Calif.). […]
structure (smiles),measurement,setting,value
"CNNC [DMH, 1,2-dimethylhydrazine]",production of type I IFN,type I IFN production; CA cells with defective STING activated IRF3 or NF-kB activity,unable to generate type I IFN
same,production of type I IFN,type I IFN production; normal colon epithelial (CCD841) and LS123,able to induce the production of type I IFN
same,translocation of IRF3/NF-κB,IRF3/NF-κB translocation,could instigate the translocation of IRF3/NF-κB
same,STING-dependent gene expression,[1],A similar effect was observed
